Values quoted from earlier work in US12472190B2, “Pharmaceutical compositions” (CIPLA Limited, priority 2010, dated 2025).

Settings: relative to S (−) isomer of budesonide; no test described

CCC[C@@H]1O[C@@H]2C[C@H]3[C@@H]4CCC5=CC(=O)C=C[C@]5(C)[C@H]4[C@@H](O)C[C@]3(C)[C@]2(C(=O)CO)O1 [R (+) budesonide]
anti-inflammatory properties as compared to S (−) isomer: nearly three times as strong
